# Measurements from patent US7875452B2, “Non-desensitizing mutant of the transient receptor potential TRPM5 ion channel” (Redpoint Bio Corporation, priority 2007, dated 2011).
# Tests used:
# Assay type in all cases: cell-based
# wildtype hTRPM5 = molecular target: T1, wildtype hTRPM5 (Homo sapiens, UniProt Q9NZQ8); test: FMP dye membrane potential assay in cells transfected with wildtype hTRPM5; conditions: 10 μM ATP, cells transfected with wildtype hTRPM5, FIG. 3
# T1 construct: the full length hTRPM5 was amplified by PCR using GC Melt; expressed in transfected cells; host or cells: HEK 293 cells
# T1 sequence (Q9NZQ8 1-1165): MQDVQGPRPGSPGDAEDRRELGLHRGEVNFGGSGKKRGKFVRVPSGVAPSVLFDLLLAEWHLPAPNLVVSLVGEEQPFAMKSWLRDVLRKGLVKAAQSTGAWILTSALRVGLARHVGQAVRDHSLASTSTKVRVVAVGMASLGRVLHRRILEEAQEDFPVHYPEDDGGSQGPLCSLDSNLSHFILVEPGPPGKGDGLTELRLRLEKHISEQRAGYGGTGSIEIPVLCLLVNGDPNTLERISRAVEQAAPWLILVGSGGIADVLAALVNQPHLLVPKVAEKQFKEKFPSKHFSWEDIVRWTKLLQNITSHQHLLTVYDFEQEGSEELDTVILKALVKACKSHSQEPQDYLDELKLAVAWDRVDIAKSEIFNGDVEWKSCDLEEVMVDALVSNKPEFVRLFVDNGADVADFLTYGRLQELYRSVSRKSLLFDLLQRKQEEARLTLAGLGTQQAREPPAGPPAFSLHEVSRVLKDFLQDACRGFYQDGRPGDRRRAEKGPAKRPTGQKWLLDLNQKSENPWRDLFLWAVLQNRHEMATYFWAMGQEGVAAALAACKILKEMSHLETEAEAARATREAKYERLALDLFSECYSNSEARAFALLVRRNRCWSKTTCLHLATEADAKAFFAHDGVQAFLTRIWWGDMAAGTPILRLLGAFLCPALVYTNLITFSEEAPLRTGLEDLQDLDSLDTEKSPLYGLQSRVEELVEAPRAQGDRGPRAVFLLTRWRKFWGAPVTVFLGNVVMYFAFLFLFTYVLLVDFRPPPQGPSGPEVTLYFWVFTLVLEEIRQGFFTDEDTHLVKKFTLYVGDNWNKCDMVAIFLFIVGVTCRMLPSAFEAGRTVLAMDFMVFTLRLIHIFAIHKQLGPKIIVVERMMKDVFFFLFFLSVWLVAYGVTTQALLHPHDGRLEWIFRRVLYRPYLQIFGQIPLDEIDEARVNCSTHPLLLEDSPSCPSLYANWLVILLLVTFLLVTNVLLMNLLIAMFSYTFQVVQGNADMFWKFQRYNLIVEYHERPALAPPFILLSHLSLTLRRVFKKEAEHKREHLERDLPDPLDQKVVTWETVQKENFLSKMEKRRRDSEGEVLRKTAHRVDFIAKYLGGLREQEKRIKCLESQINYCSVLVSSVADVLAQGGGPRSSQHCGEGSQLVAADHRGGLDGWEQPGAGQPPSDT
# Procedure: (§1) 5.0×10^6 HEK 293 cells (ATCC) were plated in a 10 cm culture dish at 37° C. in a CO2 incubator in Dulbecco's Modified Eagle's Medium (DMEM) supplemented with 10% Fetal Bovine Serum (FBS) and Penicillin-Streptomycin Solution. The following day, medium in the culture dish was exchanged with 15 mL of DMEM/10% FBS over a period of 3 hours. Prior to cell transfection, 24 μg of pcDNA-DEST-26-(His)6-hTRPM5 was incubated in a 5 mL polypropylene tube for 5 minutes at room temperature in 1.5 mL of OPTI-MEM media (Invitrogen). In a separate 5 mL polypropylene tube, 42 μL of Lipofectamine™ 2000 (Invitrogen) was incubated for 5 minutes at room temperature in 1.5 mL of OPTI-MEM media. After the 5 minute incubation period, the pcDNA-DEST-26-(His)6-hTRPM5 and Lipofectamine™ 2000 solutions were mixed together and incubated for an additional 20 minutes at room temperature. […] Plates were then assayed on a FLIPR Tetra reader as described.
# (§2) 100 μl of the Blue or Red FMP dye (Molecular Devices) was added to each well of plates seeded with HEK cells transiently transfected with pDEST-26™-(His)6-hTRPM 5. […] The plate was read in a FLEXStation™ microplate reader (Molecular Devices) with an excitation of 530 nm and an emission of 565 nm. The fluorescence was monitored for 3 minutes upon exposure of the cells to a calcium activating agent (carbachol, thrombin peptide or ATP). […]
# [1] = molecular target: T2, non-desensitizing (His)6-hTRPM5 ion channel (Homo sapiens, UniProt Q9NZQ8); test: FMP dye membrane potential assay in cells transfected with non-desensitizing (His)6-hTRPM5; conditions: 10 μM ATP, HEK 293 cells transiently transfected with (His)6-hTRPM5, FIG. 3
# T2 construct: expressed in transfected cells; host or cells: HEK 293 cells (ATCC), transient transfection with pcDNA-DEST-26-(His)6-hTRPM5
# T2 sequence (Q9NZQ8 with tags, fused parts or gaps): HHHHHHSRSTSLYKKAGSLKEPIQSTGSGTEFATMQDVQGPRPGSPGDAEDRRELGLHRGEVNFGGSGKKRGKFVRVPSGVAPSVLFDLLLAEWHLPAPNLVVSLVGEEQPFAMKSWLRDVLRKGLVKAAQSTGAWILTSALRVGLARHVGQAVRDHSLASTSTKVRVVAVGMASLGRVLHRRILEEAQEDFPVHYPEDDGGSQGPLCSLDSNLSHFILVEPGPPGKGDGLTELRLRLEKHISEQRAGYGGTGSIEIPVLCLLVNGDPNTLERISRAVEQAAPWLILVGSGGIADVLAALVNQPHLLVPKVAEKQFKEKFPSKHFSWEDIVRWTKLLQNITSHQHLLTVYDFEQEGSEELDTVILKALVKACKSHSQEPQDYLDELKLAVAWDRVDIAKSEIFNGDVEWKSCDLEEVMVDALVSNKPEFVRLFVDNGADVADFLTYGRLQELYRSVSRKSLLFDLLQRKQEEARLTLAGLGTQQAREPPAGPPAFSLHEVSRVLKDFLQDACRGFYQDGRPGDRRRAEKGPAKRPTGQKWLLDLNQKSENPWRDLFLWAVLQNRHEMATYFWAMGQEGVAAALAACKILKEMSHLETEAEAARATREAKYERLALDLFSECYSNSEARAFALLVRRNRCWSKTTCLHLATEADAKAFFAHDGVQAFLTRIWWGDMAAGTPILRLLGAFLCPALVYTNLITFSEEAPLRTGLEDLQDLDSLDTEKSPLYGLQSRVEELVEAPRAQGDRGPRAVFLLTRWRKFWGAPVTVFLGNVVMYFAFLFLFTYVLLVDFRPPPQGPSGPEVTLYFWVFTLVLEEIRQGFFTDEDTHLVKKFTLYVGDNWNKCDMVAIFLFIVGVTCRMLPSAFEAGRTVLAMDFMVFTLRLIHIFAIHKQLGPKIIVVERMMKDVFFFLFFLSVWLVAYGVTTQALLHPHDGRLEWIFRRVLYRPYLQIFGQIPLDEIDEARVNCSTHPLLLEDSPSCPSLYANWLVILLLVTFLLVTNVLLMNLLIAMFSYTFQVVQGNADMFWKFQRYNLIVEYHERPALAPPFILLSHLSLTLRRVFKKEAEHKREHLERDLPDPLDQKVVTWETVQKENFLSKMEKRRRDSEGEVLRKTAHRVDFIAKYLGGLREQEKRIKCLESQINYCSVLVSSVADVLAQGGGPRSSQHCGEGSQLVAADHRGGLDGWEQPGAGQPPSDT
# Procedure: as §1, with “media.” for “media. After the 5 minute incubation period, the pcDNA-DEST-26-(His)6-hTRPM5 and Lipofectamine™ 2000 solutions were mixed together and incubated for an additional 20 minutes at room temperature.”
# as §2
# Cells transfected with non-desensitizing (His)6-hTRPM5 DNA were loaded with FMP dye and then treated with 10 μM ATP and monitored for an increase in cellular fluorescence in the FLEXstation™. […]
# [2] = test system: cells transfected with PSV3 Neo; test: FMP dye membrane potential assay in sham cells transfected with PSV3 Neo empty vector; conditions: 10 μM ATP, sham control, FIG. 3
# Procedure: 100 μl of the Blue or Red FMP dye (Molecular Devices) was added to each well of plates seeded with HEK cells transiently transfected with pDEST-26™-(His)6-hTRPM 5. The plate was then incubated in a 37° C. /5% CO2 incubator for 1 hour. The plate was read in a FLEXStation™ microplate reader (Molecular Devices) with an excitation of 530 nm and an emission of 565 nm. The fluorescence was monitored for 3 minutes upon exposure of the cells to a calcium activating agent (carbachol, thrombin peptide or ATP).
# Cells transfected with either wildtype hTRPM5 DNA, non-desensitizing (His)6-hTRPM5 DNA or PSV3 Neo were loaded with FMP dye and then treated with 10 μM ATP and monitored for an increase in cellular fluorescence in the FLEXstation™.
smiles,measurement,setting,value
"Nc1ncnc2c1ncn2[C@@H]1O[C@H](COP(=O)(O)OP(=O)(O)OP(=O)(O)O)[C@@H](O)[C@H]1O [ATP, adenosine triphosphate]",duration of increase in fluorescence (initial activation) before rapid inactivation,wildtype hTRPM5,about 30 seconds
same,time for which fluorescence is observed at significant levels after activation,[1],more than 3 minutes
same,membrane potential response (cellular fluorescence) to application,[2],no significant response
